The source of these data is US6863647B2, “2-Ureido-thiazole derivatives, process for their preparation, and their use as antitumor agents” (Pharmacia & Upjohn S.p.A., priority 1998, dated 2005).

This experiment has as its target cdk2/cyclin A complex (Homo sapiens, UniProt P24941). In words: inhibition assay of cdk2/Cyclin A activity (MultiScreen-PH phosphocellulose filter, 33P-labelled histone H1). The class given is biochemical. Particulars: histone H1 substrate, 25 μM ATP; inhibitor 0.0045 to 10 μM; read-out: inhibiting activity towards the cdk2/cyclin A complex (IC50). On the procedure: The inhibiting activity of putative cdk/cyclin inhibitors and the potency of selected compounds was determined through a method of assay based on the use of the MultiScreen-PH 96 well plate (Millipore), in which a phosphocellulose filter paper was placed at each well bottom allowing binding of positive charged substrate after a washing/filtration step.
When a radioactivity labelled phosphate moiety was transferred by the ser/threo kinase to the filter-bound histone, light emitted was measured in a scintillation counter.
The inhibition assay of cdk2/Cyclin A activity was performed according to the following protocol: • Kinase reaction: 1.5 μM histone H1 substrate, 25 μM ATP (0.5 μCi P^33γ-ATF), 30 ng Cyclin A/cdk2 complex, 10 μM inhibitor in a final volume of 100 μl buffer (TRIS HCl 10 mM pH 7.5, MgCl2 10 mM, 7.5 mM DTT) were added to each well of a 96 U bottom well plate. […] Plates were then washed 3 times with 150 μl/well PBS Ca^++/Mg^++ free and filtered by MultiScreen filtration system. • Detection: filters were allowed to dry at 37° C., then 100 μl/well scintillant were added and ^33P labelled histone H1 was detected by radioactivity counting in the Top-Count instrument. • Results: data were analysed and expressed as % inhibition referred to total activity of enzyme (=100%). […]

`Cc1cc(C)cc(NC(=O)Nc2ncc(C(C)C)s2)c1` [N-(5-isopropyl-1,3-thiazol-2-yl)-N′-(3,5-dimethylphenyl)urea]: the IC50 stood at 560 nM.
